# Measurements reported in patent US20260286322A1, “PROTEIN TYROSINE P[…] DOMAIN PEPTIDE DIMER FOR NERVOUS SYSTEM REPAIR” (NervGen Pharma Corp., priority 2023, published 2026).
# Experiments:
# [1] = Body weights of SCI rats during treatment; format: in vivo, rat; conditions: SCI rats vs saline control, measured until the 13th week
# Method: Adult, female Lewis rats (~160 g on arrival) from Envigo were used as the subjects receiving the treatment in the study. The rats were assigned unique identification numbers (PGI ID and tail marks) and housed in ventilated cages. All rats were examined, handled, and weighed prior to initiation of the study to assure adequate health and suitability. During the course of the study, 12/12 light/dark cycles were maintained. The room temperature was maintained between […] and 23° C. with a relative humidity maintained around 50%. Chow and water were provided adlibitum for the duration of the study. The rats were randomly assigned across treatment groups. Body weights were taken twice a week during the study.
# Lyophilized Compound 8 was dissolved in saline and injected s.c. at a volume of 500 μl to animal once daily from day 1-day 49 post spinal cord injury.
# The dose concentration was 0.8 mg/ml, corresponding to 400 μg/rat. After reconstitutions, the solution was aliquoted and kept at −20° C. until dosing.
# Body weights were taken twice a week for the first 7 weeks after injury and then weekly until endpoint. Health and survival of the animals was evaluated during bladder expressions, body weight and behavioral test, any health concerns were reported and discussed with a veterinarian if needed.
# [2] = tested on: SCI rats; experiment: Percentage of SCI rats reaching predefined BBB and/or bladder score thresholds at end of study; format: in vivo, rat
# Text: In this study, the effects of Compound 8 in improving the recovery of open field locomotor performance and bladder function in the SCI rats were further evaluated in comparison with Compound 4 by assessing the BBB scores and bladder scores according to the methods described in Example 3.
# In this assessment, 12-13 rats were included in each of the following groups (1) Control group 1: SCI+saline alone; (2) Control group 2: SCI+Compound 4 in saline; (3) Testing group: SCI+Compound 8. The treatment was started on day 1 post-injury and continued through (last dose administered on) day 49 post-injury. The post-treatment observation period commenced on day 50 post-injury and continued until the end of study on day 84 post-injury.
# At the end of the study, the performance of Compound 8 was evaluated in comparison with Compound 4 and saline alone by calculating the percentages of animals achieving predefined thresholds of functional improvement in the following categories: (i) Simultaneous improvement in BBB and bladder scores, (ii) Improvement in the locomotor function (BBB score) alone but not the in the bladder score, (iii) Improvement in the bladder score alone but not in the BBB score. FIG. 16 depicts the percentage of rats in each of these three categories, as annotated on the X-axis. An additional group (annotated as “Combined”) represents the combined percentage of rats achieving improvement in any of the first three categories for each treatment cohort (saline alone, Compound 4, and Compound 8). […]
substance,measurement,setting,value
TAT-Cys-rodent PTPRS wedge domain homodimer [Compound 8],effect on body weights,[1],no adverse effects on body weights
same,percentage of rats reaching BBB score of 11 alone,[2]; end of study,about 8%
same,percentage of rats with BBB score of 11 and bladder score of 2 or less simultaneously,[2]; end of study,about 40%
same,percentage of rats with BBB score of at least 10 and bladder score of 2 or less simultaneously,[2]; end of study (day 84),~50%
same,"percentage of rats with improvement in the BBB score only (at least 10, no bladder score improvement)",[2]; end of study (day 84),about 15%
same,"percentage of rats with improvement in bladder-only scores (2 or less, no BBB improvement)","[2]; end of study (day 84), BBB threshold 10",about 8%
same,"combined rate of functional improvement (simultaneous, BBB only and bladder only combined)","[2]; end of study (day 84), thresholds BBB at least 10, bladder 2 or less",about 70%
same,"combined rate of functional improvement (BBB 11 only, bladder 2 or lower only, and both)","[2]; end of study, thresholds BBB 11, bladder 2 or lower",about 60%
